In patent US20210127673A1, “HERBICIDES” (SYNGENTA PARTICIPATIONS AG, priority 2016, published 2021):

Legend:
Type in all cases: in vivo
Settings in all cases: 1000 g/ha, evaluated after 13 days
[1] = tested on: Triticum aestivium (TRZAW); assay: Post-emergence herbicidal activity, Triticum aestivium; parameters: key: 5=total damage to plant; 0=no damage to plant
Protocol: (§1) Seeds of a variety of test species were sown in standard soil in pots: Triticum aestivium (TRZAW), Avena fatua (AVEFA), Alopecurus myosuroides (ALOMY), Echinochloa crus-galli (ECHCG), Lolium perenne (LOLPE), Zea Mays (ZEAMX), Abutilon theophrasti (ABUTH), Amaranthus retroflexus (AMARE) and Setaria faberi (SETFA). After 8 days cultivation (post-emergence) under controlled conditions in a glasshouse (at 24/16° C., day/night; 14 hours light; 65% humidity), the plants were sprayed with an aqueous spray solution derived from the formulation of the technical active ingredient in acetone/water (50:50) solution containing 0.5% Tween 20 (polyoxyethelyene sorbitan monolaurate, CAS RN 9005-64-5). The test plants were then grown in a glasshouse under controlled conditions (at 24/16° C., day/night; 14 hours light; 65% humidity) and watered twice daily. After 13 days, the test was evaluated (5=total damage to plant; 0=no damage to plant).

[2] = tested on: Echinochloa crus-galli (ECHCG); assay: Pre-emergence herbicidal activity, Echinochloa crus-galli
Protocol: (§2) Seeds of a variety of test species were sown in standard soil in pots: Triticum aestivium (TRZAW), Avena fatua (AVEFA), Alopecurus myosuroides (ALOMY), Echinochloa crus-galli (ECHCG), Lolium perenne (LOLPE), Zea Mays (ZEAMX), Abutilon theophrasti (ABUTH), Amaranthus retroflexus (AMARE) and Setaria faberi (SETFA). After cultivation for one day (pre-emergence) under controlled conditions in a glasshouse (at 24/16° C., day/night; 14 hours light; 65% humidity), the plants were sprayed with an aqueous spray solution derived from the formulation of the technical active ingredient in acetone/water (50:50) solution containing 0.5% Tween 20 (polyoxyethelyene sorbitan monolaurate, CAS RN 9005-64-5). The test plants were then grown in a glasshouse under controlled conditions (at 24/16°, day/night; 14 hours light; 65% humidity) and watered twice daily. After 13 days, the test was evaluated (5=total damage to plant; 0=no damage to plant).

Lolium perenne (LOLPE) [3] = assay: Pre-emergence herbicidal activity, Lolium perenne; parameters: key: 5=total damage to plant; 0=no damage to plant
Protocol: as §2

Setaria faberi (SETFA) [4] = assay: Post-emergence herbicidal activity, Setaria faberi; parameters: key: 5=total damage to plant; 0=no damage to plant
Protocol: as §1

[5] = tested on: Alopecurus myosuroides (ALOMY); assay: Post-emergence herbicidal activity, Alopecurus myosuroides; parameters: key: 5=total damage to plant; 0=no damage to plant
Protocol: as §1

Setaria faberi (SETFA) [6] = assay: Pre-emergence herbicidal activity, Setaria faberi; parameters: key: 5=total damage to plant; 0=no damage to plant
Protocol: as §2

Avena fatua (AVEFA) [7] = assay: Post-emergence herbicidal activity, Avena fatua
Protocol: as §1

Lolium perenne (LOLPE) [8] = assay: Post-emergence herbicidal activity, Lolium perenne
Protocol: as §1

[9] = tested on: Echinochloa crus-galli (ECHCG); assay: Post-emergence herbicidal activity, Echinochloa crus-galli; parameters: key: 5=total damage to plant; 0=no damage to plant
Protocol: as §1

[10] = tested on: Alopecurus myosuroides (ALOMY); assay: Pre-emergence herbicidal activity, Alopecurus myosuroides; parameters: key: 5=total damage to plant; 0=no damage to plant
Protocol: as §2

[11] = tested on: Triticum aestivium (TRZAW); assay: Pre-emergence herbicidal activity, Triticum aestivium; parameters: key: 5=total damage to plant; 0=no damage to plant
Protocol: as §2

Avena fatua (AVEFA) [12] = assay: Pre-emergence herbicidal activity, Avena fatua; parameters: key: 5=total damage to plant; 0=no damage to plant
Protocol: as §2

| SMILES | Control of TRAZW after post-emergence application (score 0-5) [1] | Control of ECHCG after pre-emergence application (score 0-5) [2] | Control of LOLPE after pre-emergence application (score 0-5) (Lolium perenne (LOLPE) [3]) | Control of SETFA after post-emergence application (score 0-5) (Setaria faberi (SETFA) [4]) | Control of ALOMY after post-emergence application (score 0-5) [5] | Control of SETFA after pre-emergence application (score 0-5) (Setaria faberi (SETFA) [6]) | Control of AVEFA after post-emergence application (score 0-5) (Avena fatua (AVEFA) [7]) | Control of LOLPE after post-emergence application (score 0-5) (Lolium perenne (LOLPE) [8]) | Control of ECHCG after post-emergence application (score 0-5) [9] | Control of ALOMY after pre-emergence application (score 0-5) [10] | Control of TRAZW after pre-emergence application (score 0-5) [11] | Control of AVEFA after pre-emergence application (score 0-5) (Avena fatua (AVEFA) [12]) |
| --- | --- | --- | --- | --- | --- | --- | --- | --- | --- | --- | --- | --- |
| C#CCNC(=O)Nc1ccc(-c2cncc(F)c2)nc1C(F)(F)F [Compound B41] | 0 | 4 | 1 | 5 | 0 | 5 | 3 | 2 | 4 | 0 | 0 | 1 |
| CCCOC(=O)Nc1ccc(-c2cncc(F)c2)nc1C(F)(F)F [Compound B42] | 2 | 4 | 1 | 5 | 1 | 5 | 4 | 3 | 5 | 1 | 0 | 3 |
| CC(C)COC(=O)Nc1ccc(-c2cncc(F)c2)nc1C(F)(F)F [Compound B43] | 2 | 3 | 1 | 5 | 1 | 4 | 4 | 3 | 4 | 1 | 1 | 1 |
| CC(C)NC(=O)Nc1ccc(-c2cncnc2)nc1C(F)(F)F [Compound B44] | 1 | 3 | 1 | 4 | 1 | 3 | 3 | 2 | 4 | 0 | 0 | 2 |
| O=C1OCCN1c1ccc(-c2cncc(F)c2)nc1C(F)(F)F [Compound B45, 3-[6-(5-fluoro-3-pyridyl)-2-(trifluoromethyl)-3-pyridyl]oxazolidin-2-one] | 1 | 3 | 0 | 4 | 1 | 3 | 3 | 2 | 4 | 0 | 0 | 0 |
| CN1CCN(c2ccc(-c3cncc(F)c3)nc2C(F)(F)F)C1=O [Compound B46] | 0 | 2 | 0 | 4 | 0 | 4 | 3 | 2 | 4 | 0 | 0 | 1 |
| NC(=O)Nc1ccc(-c2cncc(F)c2)nc1C(F)(F)F [Compound B47] | 0 | 4 | 1 | 5 | 0 | 5 | 3 | 2 | 4 | 0 | 0 | 1 |
| CN1CCN(C(=O)Nc2ccc(-c3cncc(F)c3)nc2C(F)(F)F)CC1 [Compound B48] | 0 | 3 | 1 | 5 | 0 | 4 | 2 | 1 | 4 | 0 | 0 | 1 |
| CNC(=O)Nc1ccc(-c2cncc(F)c2)nc1C(F)(F)F [Compound B49] | 0 | 3 | 0 | 4 | 0 | 4 | 2 | 2 | 4 | 0 | 0 | 2 |
| O=C(Nc1ccc(-c2cncc(F)c2)nc1C(F)(F)F)NC1CCCC1 [Compound B50] | 0 | 2 | 1 | 5 | 0 | 4 | 3 | 1 | 4 | 0 | 0 | 1 |
| O=C(Nc1ccc(-c2cncc(F)c2)nc1C(F)(F)F)N1CCCCC1 [Compound B51] | 0 | 2 | 1 | 5 | 0 | 5 | 3 | 3 | 4 | 0 | 0 | 1 |
